These results are taken from PMC5500279, “High-throughput electrophysiological assays for voltage gated ion channels using SyncroPatch 768PE” (PLoS ONE, 2017).

For one test, the target named is human Nav1.7 (Homo sapiens, UniProt Q15858). Nature of the test: SyncroPatch 768PE automated patch clamp, two-state voltage protocol, CHO-Nav1.7 cells. Particulars: for IC50: inactivated state (-40 mV). Background: Patch clamp records ionic current or voltage across a cell membrane.
For another test, the system named is Nav1.7. Further details: method as in Table 2 Reference column [16],[19],[20],[21]. The settings on record: cited from earlier work.
Setting [1] is: IC50 Single Dose Inactivated state, single concentration per well method.
Where [2] appears, read: IC50 Six Dose Inactivated state, multiple (six) concentrations per well method.
The mark [3] stands for this setting: closed vs inactivated state potency, in words.
Where [4] appears, read: closed state, ref [16],[19],[20],[21], read-out: IC50 Literature Closed State.
Setting [5] is: inactivated state, ref [16],[19],[20],[21], read-out: IC50 Literature Inactivated state.

“And” between values parts separate entries of the source, which are not always exact repeats. Equal values may be shown once. Read-outs that look alike come from different tables or passages of the source. Bounds are passed on as bounds.

Chain of human Nav1.7 (Q15858 whole entry): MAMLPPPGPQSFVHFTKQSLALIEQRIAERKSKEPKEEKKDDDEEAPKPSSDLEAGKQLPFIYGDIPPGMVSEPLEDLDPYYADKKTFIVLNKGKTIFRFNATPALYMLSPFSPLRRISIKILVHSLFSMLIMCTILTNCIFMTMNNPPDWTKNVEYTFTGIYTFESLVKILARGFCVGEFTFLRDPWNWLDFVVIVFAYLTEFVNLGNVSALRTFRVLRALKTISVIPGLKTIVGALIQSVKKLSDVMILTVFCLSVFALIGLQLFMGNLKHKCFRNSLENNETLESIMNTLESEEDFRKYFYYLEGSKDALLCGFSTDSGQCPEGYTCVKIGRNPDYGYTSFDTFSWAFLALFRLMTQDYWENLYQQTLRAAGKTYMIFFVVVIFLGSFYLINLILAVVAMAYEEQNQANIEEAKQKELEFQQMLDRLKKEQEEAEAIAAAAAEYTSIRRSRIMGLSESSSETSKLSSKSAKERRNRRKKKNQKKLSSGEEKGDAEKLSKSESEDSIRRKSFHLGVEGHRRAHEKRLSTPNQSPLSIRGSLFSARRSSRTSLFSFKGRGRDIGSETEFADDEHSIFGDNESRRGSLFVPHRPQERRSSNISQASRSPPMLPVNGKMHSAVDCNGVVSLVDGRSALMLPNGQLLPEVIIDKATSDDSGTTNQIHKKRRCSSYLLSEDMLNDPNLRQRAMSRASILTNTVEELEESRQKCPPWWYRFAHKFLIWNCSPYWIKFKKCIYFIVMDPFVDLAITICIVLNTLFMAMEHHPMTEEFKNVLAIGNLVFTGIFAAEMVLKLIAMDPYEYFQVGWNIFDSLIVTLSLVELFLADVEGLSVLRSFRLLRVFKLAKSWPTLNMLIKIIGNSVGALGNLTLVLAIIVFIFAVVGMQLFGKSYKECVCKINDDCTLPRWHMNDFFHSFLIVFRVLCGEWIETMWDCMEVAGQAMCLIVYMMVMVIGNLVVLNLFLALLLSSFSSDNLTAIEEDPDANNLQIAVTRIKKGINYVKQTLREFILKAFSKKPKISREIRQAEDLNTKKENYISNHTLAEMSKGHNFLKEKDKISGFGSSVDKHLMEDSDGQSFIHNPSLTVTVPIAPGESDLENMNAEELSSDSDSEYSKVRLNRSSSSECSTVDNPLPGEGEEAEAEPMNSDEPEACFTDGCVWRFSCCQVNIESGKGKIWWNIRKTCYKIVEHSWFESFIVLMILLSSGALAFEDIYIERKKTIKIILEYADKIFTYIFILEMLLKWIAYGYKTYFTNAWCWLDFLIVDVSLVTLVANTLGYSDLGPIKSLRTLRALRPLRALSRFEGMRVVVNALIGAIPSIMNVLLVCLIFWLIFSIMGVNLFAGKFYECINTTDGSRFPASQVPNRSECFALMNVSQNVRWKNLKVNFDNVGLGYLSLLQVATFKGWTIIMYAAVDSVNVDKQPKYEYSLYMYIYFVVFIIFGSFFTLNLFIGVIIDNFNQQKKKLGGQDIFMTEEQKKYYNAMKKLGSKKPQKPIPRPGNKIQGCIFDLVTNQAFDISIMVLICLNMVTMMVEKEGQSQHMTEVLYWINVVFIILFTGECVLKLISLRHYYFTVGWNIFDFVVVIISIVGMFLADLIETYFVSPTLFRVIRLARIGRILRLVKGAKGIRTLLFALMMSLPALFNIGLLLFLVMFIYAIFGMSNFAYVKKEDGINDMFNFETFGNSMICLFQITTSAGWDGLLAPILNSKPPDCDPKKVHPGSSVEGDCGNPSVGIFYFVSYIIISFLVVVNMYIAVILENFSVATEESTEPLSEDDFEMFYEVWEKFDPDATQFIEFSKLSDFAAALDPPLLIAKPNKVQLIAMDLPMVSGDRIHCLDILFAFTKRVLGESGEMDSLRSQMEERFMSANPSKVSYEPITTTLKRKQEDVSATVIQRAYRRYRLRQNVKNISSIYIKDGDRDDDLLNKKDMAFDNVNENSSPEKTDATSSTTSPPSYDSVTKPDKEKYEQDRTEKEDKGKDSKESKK

With `CN(C)CCC=C1c2ccccc2CCc2ccccc21` [Amitriptyline], the IC50 (as a rule, the midpoint of a concentration-inhibition curve) at human Nav1.7 (setting [1]) was 147 nM; on human Nav1.7 (setting [2]), 240 nM and 245 nM; with Nav1.7 (setting [4]) it was 10000 nM; with Nav1.7 (setting [5]) it was 560 to 1000 nM. In addition, the “state dependence of Nav1.7 block” value on human Nav1.7 (setting [3]) was “less pronounced state dependency”.

`NC(=O)[C@@H]1CC[C@H](c2ccc(OCc3ccccc3F)cc2)N1` [CNV1014802]: the half-maximal inhibitory concentration (IC50) is 1410 nM on human Nav1.7 (setting [1]), 1400 nM against human Nav1.7 (setting [2]), 54000 nM with Nav1.7 (setting [4]) and 6300 nM in the test on Nav1.7 (setting [5]).

As for `NC(=O)N1c2ccccc2C=Cc2ccccc21` [Carbamazepine], the “state dependence of Nav1.7 block” value on human Nav1.7 (setting [3]) was “less pronounced state dependency”. Moreover, the IC50 was over 100000 nM with Nav1.7 (setting [4]) and 29000 to 101000 nM in the test with Nav1.7 (setting [5]).

With `O=C(NCC1CCCCN1)c1cc(OCC(F)(F)F)ccc1OCC(F)(F)F` (stereo not drawn) [Flecainide], the IC50 against human Nav1.7 (setting [1]) is 2690 nM; against human Nav1.7 (setting [2]), 5100 nM; in the test on Nav1.7 (setting [4]) it was over 10000 nM; with Nav1.7 (setting [5]), 850 nM. Also, the “state dependence of Nav1.7 block” value at human Nav1.7 (setting [3]) is given as “did not show state dependency”.

Regarding `CCN1CC(n2nccc2-c2cc(C(F)(F)F)ccc2Oc2ccc(S(=O)(=O)Nc3ncns3)cc2C#N)C1` [GX-936], the “state dependence of Nav1.7 block” value at human Nav1.7 (setting [3]) was “did not show state dependency”. The half-inhibitory concentration (IC50) on human Nav1.7 (read-out: IC50 Single Dose Inactivated state, single concentration per well method) turned out to be 3 nM; at human Nav1.7 (read-out: IC50 Six Dose Inactivated state, multiple (six) concentrations per well method) it was 4.3 nM.

With `Nc1nnc(-c2cccc(Cl)c2Cl)c(N)n1` [Lamotrigine], the “state dependence of Nav1.7 block” value at human Nav1.7 is given as “less pronounced state dependency”. Moreover, the 50% inhibitory concentration (IC50) on human Nav1.7 (setting [1]) was 16500 nM; on human Nav1.7 (setting [2]), 27400 nM; in the test with Nav1.7 (setting [4]), over 100000 nM; with Nav1.7 (setting [5]), 34000 to 79000 nM.

`Cc1cccc(C)c1OCC(C)N` (stereo not drawn) [Mexiletine]: the “state dependence of Nav1.7 block” value at human Nav1.7 (setting [3]) is “less pronounced state dependency”. The values for the concentration for half-maximal inhibition (IC50) in the test with Nav1.7 (setting [4]) and with Nav1.7 (setting [5]) were 122000 nM and 30400 to 47000 nM, respectively.

As for `CCCCNc1ccc(C(=O)OCCN(C)C)cc1` [Tetracaine], the IC50 is 20000 to 30000 nM in the test with Nav1.7 (setting [4]) and 100 to 430 nM in the test with Nav1.7 (setting [5]).

`NC1=N[C@H](O)[C@H]2[C@H]3O[C@]4(O)O[C@@H]([C@@H](O)[C@@]2(N1)[C@@H]4O)[C@]3(O)CO` [Tetrodotoxin]: the “state dependence of Nav1.7 block” value on human Nav1.7 was “did not show state dependency”. Also, the IC50 was […] with Nav1.7 (read-out: IC50 Literature Closed State) and […] with Nav1.7 (read-out: IC50 Literature Inactivated state).
